Here are results for three compounds from PubChem BioAssay AID1259407 (Chemical Carcinogenesis Research Information System (CCRIS), 2018).

This data set concerns CCRIS mutagenicity, Ames/micronucleus/aberration tests. Briefly: CCRIS mutagenicity studies.

Each structure is given as a SMILES string. Activity calls are given as the source filed them. No rule for the calls is given here.

Consider `CNc1ccc(N(CCO)CCO)cc1[N+](=O)[O-]`, for which the mutagenic call (End Point: IN VITRO CHROMOSOMAL ABERRATIONS, Test System: CHO-LB CELLS, Metabolic Activation: NONE) is “inactive; negative”; the mutagenic call (End Point: IN VITRO CHROMOSOMAL ABERRATIONS, Test System: CHO-LB CELLS, Metabolic Activation: RAT, LIVER, S-9, AROCLOR 1254) was “active; positive”; the mutagenic call (Test System: AMES SALMONELLA TYPHIMURIUM, Strain/Indicator: TA97, Metabolic Activation: HAMSTER, LIVER, S-9, AROCLOR 1254 (10%), Method: PREINCUBATION) was “active; positive”; the mutagenic call (Test System: AMES SALMONELLA TYPHIMURIUM, Strain/Indicator: TA97, Metabolic Activation: HAMSTER, LIVER, S-9, AROCLOR 1254, Method: PREINCUBATION) was “active; positive”; the mutagenic call (Test System: AMES SALMONELLA TYPHIMURIUM, Strain/Indicator: TA97, Metabolic Activation: NONE, Method: PREINCUBATION) was “active; positive”; the mutagenic call (Test System: AMES SALMONELLA TYPHIMURIUM, Strain/Indicator: TA97, Metabolic Activation: RAT, LIVER, S-9, AROCLOR 1254 (10%), Method: PREINCUBATION) was “active; positive”. For the same compound, the mutagenic call is “active; positive” (Test System: AMES SALMONELLA TYPHIMURIUM, Strain/Indicator: TA97, Metabolic Activation: RAT, LIVER, S-9, AROCLOR 1254, Method: PREINCUBATION); “active; positive” (Test System: AMES SALMONELLA TYPHIMURIUM, Strain/Indicator: TA98, Metabolic Activation: HAMSTER, LIVER, S-9, AROCLOR 1254 (10%), Method: PREINCUBATION); “active; positive” (Test System: AMES SALMONELLA TYPHIMURIUM, Strain/Indicator: TA98, Metabolic Activation: HAMSTER, LIVER, S-9, AROCLOR 1254, Method: PREINCUBATION); “active; positive” (Test System: AMES SALMONELLA TYPHIMURIUM, Strain/Indicator: TA98, Metabolic Activation: NONE, Method: PREINCUBATION); “inactive; negative” (Test System: AMES SALMONELLA TYPHIMURIUM, Strain/Indicator: TA98, Metabolic Activation: NONE, Method: STANDARD PLATE); “active; positive” (Test System: AMES SALMONELLA TYPHIMURIUM, Strain/Indicator: TA98, Metabolic Activation: RAT, LIVER, S-9, AROCLOR 1254 (10%), Method: PREINCUBATION). The mutagenic call was “active; positive” (Test System: AMES SALMONELLA TYPHIMURIUM, Strain/Indicator: TA98, Metabolic Activation: RAT, LIVER, S-9, AROCLOR 1254, Method: PREINCUBATION); “inactive; negative” (Test System: AMES SALMONELLA TYPHIMURIUM, Strain/Indicator: TA98, Metabolic Activation: RAT, LIVER, S-9, AROCLOR 1254, Method: STANDARD PLATE); “active; positive” (Test System: AMES SALMONELLA TYPHIMURIUM, Strain/Indicator: TA100, Metabolic Activation: HAMSTER, LIVER, S-9, AROCLOR 1254 (10%), Method: PREINCUBATION); “active; positive” (Test System: AMES SALMONELLA TYPHIMURIUM, Strain/Indicator: TA100, Metabolic Activation: HAMSTER, LIVER, S-9, AROCLOR 1254, Method: PREINCUBATION); “active; positive” (Test System: AMES SALMONELLA TYPHIMURIUM, Strain/Indicator: TA100, Metabolic Activation: NONE, Method: PREINCUBATION); “inactive; negative” (Test System: AMES SALMONELLA TYPHIMURIUM, Strain/Indicator: TA100, Metabolic Activation: NONE, Method: STANDARD PLATE). Further, the mutagenic call runs as follows: (Test System: AMES SALMONELLA TYPHIMURIUM, Strain/Indicator: TA100, Metabolic Activation: RAT, LIVER, S-9, AROCLOR 1254 (10%), Method: PREINCUBATION) “active; positive”; (Test System: AMES SALMONELLA TYPHIMURIUM, Strain/Indicator: TA100, Metabolic Activation: RAT, LIVER, S-9, AROCLOR 1254, Method: PREINCUBATION) “active; positive”; (Test System: AMES SALMONELLA TYPHIMURIUM, Strain/Indicator: TA100, Metabolic Activation: RAT, LIVER, S-9, AROCLOR 1254, Method: STANDARD PLATE) “inactive; negative”; (Test System: AMES SALMONELLA TYPHIMURIUM, Strain/Indicator: TA1535, Metabolic Activation: HAMSTER, LIVER, S-9, AROCLOR 1254 (10%), Method: PREINCUBATION) “inactive; negative”; (Test System: AMES SALMONELLA TYPHIMURIUM, Strain/Indicator: TA1535, Metabolic Activation: HAMSTER, LIVER, S-9, AROCLOR 1254, Method: PREINCUBATION) “inactive; negative”; (Test System: AMES SALMONELLA TYPHIMURIUM, Strain/Indicator: TA1535, Metabolic Activation: NONE, Method: PREINCUBATION) “inactive; negative”. The mutagenic call reads like this: (Test System: AMES SALMONELLA TYPHIMURIUM, Strain/Indicator: TA1535, Metabolic Activation: NONE, Method: STANDARD PLATE) “inactive; negative”; (Test System: AMES SALMONELLA TYPHIMURIUM, Strain/Indicator: TA1535, Metabolic Activation: RAT, LIVER, S-9, AROCLOR 1254 (10%), Method: PREINCUBATION) “inactive; negative”; (Test System: AMES SALMONELLA TYPHIMURIUM, Strain/Indicator: TA1535, Metabolic Activation: RAT, LIVER, S-9, AROCLOR 1254, Method: PREINCUBATION) “inactive; negative”; (Test System: AMES SALMONELLA TYPHIMURIUM, Strain/Indicator: TA1535, Metabolic Activation: RAT, LIVER, S-9, AROCLOR 1254, Method: STANDARD PLATE) “inactive; negative”; (Test System: AMES SALMONELLA TYPHIMURIUM, Strain/Indicator: TA1537, Metabolic Activation: NONE, Method: STANDARD PLATE) “inactive; negative”; (Test System: AMES SALMONELLA TYPHIMURIUM, Strain/Indicator: TA1537, Metabolic Activation: RAT, LIVER, S-9, AROCLOR 1254, Method: STANDARD PLATE) “inactive; negative”. The mutagenic call by setting is: (Test System: E. COLI, Strain/Indicator: WP2 UVRA, Metabolic Activation: NONE, Method: STANDARD PLATE) “inactive; negative”; (Test System: E. COLI, Strain/Indicator: WP2 UVRA, Metabolic Activation: RAT, LIVER, S-9, AROCLOR 1254, Method: STANDARD PLATE) “inactive; negative”; (Test System: MOUSE LYMPHOMA, Strain/Indicator: L5178Y (TK+/TK-), Metabolic Activation: RAT, LIVER, S-9, AROCLOR 1254, Method: SUSPENSION/PLATE) “inactive; negative”; (Test System: UDS MONKEY PRIMARY HEPATOCYTES, Strain/Indicator: THY INCORP (NON-S-PHASE), Metabolic Activation: NONE, Method: AUTORADIOGRAPHY) “active; positive”; (Test System: UDS RODENT PRIMARY HEPATOCYTES, Strain/Indicator: THY INCORP (NON-S-PHASE), Metabolic Activation: NONE, Method: AUTORADIOGRAPHY) “active; positive”.
For the compound `CCOC(=O)Nc1cccc2c1[nH]c1ccncc12`, the mutagenic call runs as follows: (Test System: AMES SALMONELLA TYPHIMURIUM, Strain/Indicator: TA1537, Metabolic Activation: NONE, Method: PREINCUBATION) “inactive; negative”; (Test System: AMES SALMONELLA TYPHIMURIUM, Strain/Indicator: TA1537, Metabolic Activation: RAT, LIVER, S-9, PHENOBARBITAL, Method: PREINCUBATION) “inactive; negative”.
On to `C#CCO`, for which the mutagenic call (End Point: In vivo micronucleus, Test System: Normochromatic erythrocytes, Species: Mouse, Strain/Sex: B6C3F1/Male) was “inactive; negative”; the mutagenic call (End Point: In vivo micronucleus, Test System: Normochromatic erythrocytes, Species: Mouse, Strain/Sex: B6C3F1/female) was “inactive; negative. in females, statistically significant trend test but no individual gro”; the mutagenic call (Test System: AMES SALMONELLA TYPHIMURIUM, Strain/Indicator: TA97, Metabolic Activation: NONE) is “inactive; negative”; the mutagenic call (Test System: AMES SALMONELLA TYPHIMURIUM, Strain/Indicator: TA97, Metabolic Activation: RAT, LIVER, S-9, AROCLOR 1254) is “inactive; negative”; the mutagenic call (Test System: AMES SALMONELLA TYPHIMURIUM, Strain/Indicator: TA98, Metabolic Activation: NONE) is “inactive; negative”; the mutagenic call (Test System: AMES SALMONELLA TYPHIMURIUM, Strain/Indicator: TA98, Metabolic Activation: RAT, LIVER, S-9, AROCLOR 1254) was “inactive; negative”. The mutagenic call is, setting by setting: (Test System: AMES SALMONELLA TYPHIMURIUM, Strain/Indicator: TA100, Metabolic Activation: NONE) “inactive; negative”; (Test System: AMES SALMONELLA TYPHIMURIUM, Strain/Indicator: TA100, Metabolic Activation: RAT, LIVER, S-9, AROCLOR 1254) “inactive; negative”; (Test System: AMES SALMONELLA TYPHIMURIUM, Strain/Indicator: TA102, Metabolic Activation: NONE) “inactive; negative”; (Test System: AMES SALMONELLA TYPHIMURIUM, Strain/Indicator: TA102, Metabolic Activation: RAT, LIVER, S-9, AROCLOR 1254) “inactive; negative”; (Test System: Ames Salmonella typhimurium, Strain/Indicator: TA98, Metabolic Activation: Hamster, Liver, S9, Aroclor 1254 (30%), Method: Preincubation) “inactive; negative. authors judged results as equivocal”; (Test System: Ames Salmonella typhimurium, Strain/Indicator: TA98, Metabolic Activation: Rat, Liver, S9, Aroclor 1254 (30%), Method: Preincubation) “inactive; negative. precipitate at highest dose”. Moreover, the mutagenic call (Test System: Ames Salmonella typhimurium, Strain/Indicator: TA100, Metabolic Activation: Hamster, Liver, S9, Aroclor 1254 (30%), Method: Preincubation) was “inactive; negative”; the mutagenic call (Test System: Ames Salmonella typhimurium, Strain/Indicator: TA100, Metabolic Activation: Rat, Liver, S9, Aroclor 1254 (30%), Method: Preincubation) is “inactive; negative”; the mutagenic call (Test System: Ames Salmonella typhimurium, Strain/Indicator: TA1535, Metabolic Activation: None, Method: Preincubation) is “inactive; negative”.
